Experimental findings from patent US8168651B2, “Protein kinase modulators” (Cylene Pharmaceuticals, Inc., priority 2008, dated 2012) are described below.

In test [1] the test system is K-562. The experiment in a line: Cell proliferation modulatory activity, K-562. Type of test: cell-based. The conditions noted are these: Homo sapiens, K562; K-562 cells.
Test [2] relates to MV-4-11. The test can be described thus: Cell proliferation modulatory activity, MV-4-11. Conditions: Homo sapiens, MV4-11; MV-4-11 cells. It is filed as cell-based.
Test [3] has as its system HCT-116 human colorectal carcinoma cells. The experiment in a line: Cell-proliferation assay using Alamar Blue dye.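 Note: cells exposed to compound for about 4 days, then Alamar Blue added and dye fluorescence read after about 4 h, compared with medium-only control wells.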 Type of test: cell-based. The conditions noted are these: Homo sapiens.
The target of another test is Flt3 (Homo sapiens (Human), UniProt P36888). The test can be described thus: FLT-3 kinase activity in cell free in vitro assay. Type of test: biochemical. The conditions noted are these: cell-free assay.
The target in a further test is recombinant human CK2 (Homo sapiens (Human), UniProt P68400). The test can be described thus: CK2 assay (cell-free, 33P-ATP filter plate). It is filed as biochemical. Conditions: cell-free assay; for inhibition at 0.5 µM: 500 nM compound, read-out: CK2: % inh 500 nM; for IC50: 15 um ATP, read-out: CK2 (15 um ATP) IC50.
The target in a further test is recombinant human PIM1 (Homo sapiens (Human), UniProt P11309). The experiment in a line: PIM-1 kinase activity in cell-free in vitro assay. It is filed as biochemical. Conditions: for inhibition at 0.5 µM: 500 nM compound, read-out: PIM-1: % inh 500 nM.
Test [4] concerns K-562. The test can be described thus: Cell proliferation modulatory activity, K-562. It is filed as cell-based. Conditions: Homo sapiens, K562.
Test [5] relates to MV-4-11. The experiment in a line: Cell proliferation modulatory activity, MV-4-11. It is filed as cell-based. Conditions: Homo sapiens, MV4-11.
Test [6] concerns K-562. The test can be described thus: Cell proliferation modulatory activity, K-562. Type of test: cell-based. The conditions noted are these: Homo sapiens, K562. The source holds these as a separate data set.
The next test concerns Jurkat. The test can be described thus: Cell proliferation modulatory activity, Jurkat. Type of test: cell-based. Conditions: Homo sapiens.
Where [7] appears, read: HCT-116, second HCT-116 column (c8), read-out: HCT-116 (uM) cell proliferation modulatory activity.
[8] abbreviates: HCT-116, read-out: HCT-116 (uM), cell proliferation modulatory activity, HCT-116, second column.
Setting [9] is: HCT-116, HCT-116, second HCT-116 column (c8), read-out: HCT-116 (uM), cell proliferation modulatory activity.
[10] abbreviates: HCT-116, read-out: HCT-116 (uM), cell proliferation modulatory activity, HCT-116, second HCT-116 column (c8).

Where two headings read alike, the source gives them in different places.

Sequence of recombinant human PIM1 (P11309 whole entry): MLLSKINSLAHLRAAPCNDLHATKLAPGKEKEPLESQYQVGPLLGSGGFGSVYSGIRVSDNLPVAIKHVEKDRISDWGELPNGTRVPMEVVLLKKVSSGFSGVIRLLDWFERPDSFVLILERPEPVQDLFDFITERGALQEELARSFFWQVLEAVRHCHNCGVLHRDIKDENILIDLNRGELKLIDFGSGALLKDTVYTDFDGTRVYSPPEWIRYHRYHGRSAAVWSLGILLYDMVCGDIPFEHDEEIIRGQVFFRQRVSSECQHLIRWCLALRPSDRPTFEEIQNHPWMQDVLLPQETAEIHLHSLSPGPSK
Sequence of recombinant human CK2 (P68400 whole entry): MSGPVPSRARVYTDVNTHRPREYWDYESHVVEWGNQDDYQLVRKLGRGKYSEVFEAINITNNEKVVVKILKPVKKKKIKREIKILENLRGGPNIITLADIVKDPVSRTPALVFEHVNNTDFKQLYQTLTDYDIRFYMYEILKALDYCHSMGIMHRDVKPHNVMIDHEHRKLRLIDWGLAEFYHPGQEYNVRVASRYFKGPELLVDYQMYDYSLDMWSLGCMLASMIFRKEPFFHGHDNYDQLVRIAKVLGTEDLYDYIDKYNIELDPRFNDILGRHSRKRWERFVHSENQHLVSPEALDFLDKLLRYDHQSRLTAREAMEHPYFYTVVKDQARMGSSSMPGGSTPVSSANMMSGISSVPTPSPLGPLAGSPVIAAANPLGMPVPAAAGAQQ
Sequence of recombinant human CK2 (P67870 whole entry partner): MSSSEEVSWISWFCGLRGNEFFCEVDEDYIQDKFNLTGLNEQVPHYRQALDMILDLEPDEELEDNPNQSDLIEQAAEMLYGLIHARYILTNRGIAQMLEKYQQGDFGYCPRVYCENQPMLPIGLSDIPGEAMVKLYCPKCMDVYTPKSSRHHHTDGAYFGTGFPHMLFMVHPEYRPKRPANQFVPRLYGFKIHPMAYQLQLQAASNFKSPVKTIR
Sequence of Flt3 (P36888 27-993): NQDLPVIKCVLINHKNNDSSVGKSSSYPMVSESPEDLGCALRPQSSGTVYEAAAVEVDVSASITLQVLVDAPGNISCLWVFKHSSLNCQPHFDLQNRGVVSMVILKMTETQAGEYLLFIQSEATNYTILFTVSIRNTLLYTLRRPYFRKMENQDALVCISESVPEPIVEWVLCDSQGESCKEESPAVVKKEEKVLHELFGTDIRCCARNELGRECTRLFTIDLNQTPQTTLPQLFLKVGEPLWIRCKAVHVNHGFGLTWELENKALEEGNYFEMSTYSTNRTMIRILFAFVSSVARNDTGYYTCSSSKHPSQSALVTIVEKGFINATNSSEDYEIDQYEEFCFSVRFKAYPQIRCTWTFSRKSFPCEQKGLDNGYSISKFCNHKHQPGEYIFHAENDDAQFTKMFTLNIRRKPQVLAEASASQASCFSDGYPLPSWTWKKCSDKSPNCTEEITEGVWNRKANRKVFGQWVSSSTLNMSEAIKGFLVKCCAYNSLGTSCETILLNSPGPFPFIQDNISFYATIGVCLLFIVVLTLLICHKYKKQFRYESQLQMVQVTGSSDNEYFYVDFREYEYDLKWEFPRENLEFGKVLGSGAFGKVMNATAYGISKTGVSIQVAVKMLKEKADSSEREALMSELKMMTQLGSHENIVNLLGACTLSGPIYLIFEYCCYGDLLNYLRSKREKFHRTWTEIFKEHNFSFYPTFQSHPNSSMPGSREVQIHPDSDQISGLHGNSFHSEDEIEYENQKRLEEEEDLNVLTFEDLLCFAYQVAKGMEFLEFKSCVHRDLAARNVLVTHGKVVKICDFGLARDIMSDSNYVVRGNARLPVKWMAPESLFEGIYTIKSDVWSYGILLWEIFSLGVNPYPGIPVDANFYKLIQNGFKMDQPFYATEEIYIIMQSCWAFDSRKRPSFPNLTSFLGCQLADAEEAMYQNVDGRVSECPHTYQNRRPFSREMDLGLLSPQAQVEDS

Turning to `Clc1cccc(Nc2nc3cc(-c4nnc[nH]4)ccc3c3cnccc23)c1`, the IC50 with K-562 [1] was 0.546 µM; in the test with MV-4-11 [2], 1.06 µM; in test [3] (setting [7]) it was over 10 µM; on Flt3 (read-out: FLT-3 (uM) IC50) it was 0.09 µM. For the same compound, the inhibition at 0.5 µM is -2.18% at recombinant human CK2 and -19.3% on recombinant human PIM1 (cell-free assay).
For the compound `CONC(=O)c1ccc2c(c1)nc(Nc1cccc(Cl)c1)c1ccncc12`, the IC50 in the test with K-562 [1] is 2.61 µM; in the test with MV-4-11 [2], 0.691 µM; in test [3] (setting [7]), 4.54 µM; at Flt3 (read-out: FLT-3 (uM) IC50), over 0.4 µM. The inhibition at 0.5 µM at recombinant human CK2 was 14.2%; at recombinant human PIM1 (cell-free assay), -15.6%.
As for `O=C(O)c1ccc2c(c1)nc(NCCCc1ccccc1)c1ccncc12` [drawing 1561], the values for the IC50 (in the test on K-562 [4]; in test [3] (setting [8]); at recombinant human PIM1 (cell-free)) were 7.17 µM, over 10 µM and 0.441 µM, respectively. Also, at recombinant human PIM1 (cell-free), the inhibition at 0.5 µM came to 69.7%.
In the case of `O=C(NCc1ccccn1)c1ccc2c(c1)nc(Nc1cccc(Cl)c1)c1ccncc12`, the IC50 is 9.88 µM in test [3] (setting [9]), over 10 µM in the test on MV-4-11 [5], 0.289 µM at Flt3 (read-out: FLT-3) and over 10 µM in the test on K-562 [6]. Also, the inhibition at 0.5 µM at recombinant human PIM1 (cell-free assay) is -11.1%.
For the compound `O=C(NCCN1CCOCC1)c1ccc2c(c1)nc(Nc1cccc(Cl)c1)c1ccncc12`, the IC50 in test [3] (setting [9]) is over 10 µM; with MV-4-11 [5] it was 0.099 µM; at Flt3 (read-out: FLT-3) it was over 0.4 µM; in the test on K-562 [6], over 10 µM. At recombinant human PIM1 (cell-free assay), the inhibition at 0.5 µM stood at 1.16%.
As to `O=C(O)c1ccc2c(c1)nc(Nc1ccc(Br)cc1F)c1ccncc12`, the IC50 in the test on K-562 [1] is over 10 µM; in the test with MV-4-11 [2], 7.26 µM; in test [3] (setting [7]), over 10 µM; on Flt3 (read-out: FLT-3 (uM) IC50), 0.087 µM; on recombinant human PIM1 (cell-free assay), 0.339 µM.
On to `O=C(O)c1ccc2c(c1)nc(NCCc1cccc(Cl)c1)c1ccncc12` [drawing 1559], for which the values for the IC50 (with K-562 [4]; in [3] (setting [8]); on recombinant human PIM1 (cell-free)) were 9.18 µM, over 10 µM and 1.06 µM, respectively. The inhibition at 0.5 µM on recombinant human PIM1 (cell-free) came out at 43.1%.
As for `CNC(=O)c1ccc2c(c1)nc(Nc1cccc(Cl)c1)c1ccncc12`, the IC50 in the test on Jurkat is 13.7 µM; in test [3] (setting [9]), over 10 µM; at Flt3 (read-out: FLT-3), over 0.4 µM; on recombinant human CK2 it was over 0.75 µM; with K-562 [6] it was over 10 µM. Also, at recombinant human PIM1 (cell-free assay), the inhibition at 0.5 µM is -39.8%.
Take `O=C(O)c1ccc2c(c1)nc(Nc1cccc(C(F)(F)F)c1)c1ccncc12`: the IC50 in the test with Jurkat was 3.15 µM; in test [3] (setting [10]), 5.14 µM; in the test on MV-4-11 [5] it was 0.354 µM; at recombinant human PIM1 (cell-free assay), 0.16 µM; in the test with K-562 [6] it was over 10 µM. For the same compound, the inhibition at 0.5 µM at recombinant human PIM1 (cell-free assay) was 88.8%.
As for `O=C(O)c1ccc2c(c1)nc(Nc1ccc(Cl)c(C(F)(F)F)c1)c1ccncc12`, the IC50 was 3.05 µM with Jurkat; 3.99 µM in test [3] (setting [10]); over 10 µM with MV-4-11 [5]; 0.408 µM at recombinant human PIM1 (cell-free assay); over 10 µM in the test on K-562 [6]. Besides, at recombinant human PIM1 (cell-free assay), the inhibition at 0.5 µM was found to be 73.6%.
With `NC(=O)c1ccc2c(c1)nc(Nc1ccc(F)c(Cl)c1)c1ccncc12`, the IC50 was over 10 µM in the test with K-562 [1], 0.373 µM with MV-4-11 [2], over 10 µM in [3] (setting [7]) and 0.167 µM on Flt3 (read-out: FLT-3 (uM) IC50). The inhibition at 0.5 µM at recombinant human CK2 was 66.1%; on recombinant human PIM1 (cell-free assay), -9.45%.
Regarding `C#Cc1cccc(Nc2nc3cc(C(=O)N(C)C)ccc3c3cncnc23)c1`, the IC50 worked out at 1.18 µM with Jurkat, 0.545 µM in test [3] (setting [9]), 4.62 µM in the test on MV-4-11 [5] and 9.79 µM in the test with K-562 [6]. For the same compound, the inhibition at 0.5 µM at recombinant human PIM1 (cell-free assay) is -27.8%.
As for `O=C(O)c1ccc2c(c1)nc(Nc1cc(F)cc(Cl)c1)c1ccncc12`, the IC50 was 1.56 µM with K-562 [1]; 0.25 µM in the test on MV-4-11 [2]; over 10 µM in [3] (setting [7]); 0.031 µM at Flt3 (read-out: FLT-3 (uM) IC50); 0.075 µM on recombinant human PIM1 (cell-free assay). Also, the inhibition at 0.5 µM at recombinant human CK2 turned out to be 98.7%; at recombinant human PIM1 (cell-free assay), 101%.
With `NC(=O)c1ccc2c(c1)nc(Nc1cccc(C(F)(F)F)c1)c1ccncc12`, the IC50 in the test on K-562 [1] was 2.46 µM; in the test with MV-4-11 [2] it was 0.12 µM; in test [3] (setting [7]), 4.28 µM; at Flt3 (read-out: FLT-3 (uM) IC50) it was 0.006 µM. In addition, the inhibition at 0.5 µM on recombinant human CK2 is 34.4%; on recombinant human PIM1 (cell-free assay) it was 1.09%.
Consider `Clc1cccc(Nc2nc3ccccc3c3cnccc23)c1`, for which the IC50 in the test with K-562 [1] is over 10 µM; with MV-4-11 [2] it was 2.82 µM; in test [3] (setting [7]), over 10 µM; at Flt3 (read-out: FLT-3 (uM) IC50), 0.344 µM. The results for the inhibition at 0.5 µM at recombinant human CK2 and at recombinant human PIM1 (cell-free assay) were -42.8% and -22.8%, respectively.
For the compound `O=C(O)c1ccc2c(c1)nc(Nc1cccc(Cl)c1)c1cnccc12`, the IC50 in the test on K-562 [1] is over 10 µM; in the test with MV-4-11 [2] it was over 10 µM; in test [3] (setting [7]) it was over 10 µM; on Flt3 (read-out: FLT-3 (uM) IC50), over 0.4 µM; at recombinant human PIM1 (cell-free assay), 0.122 µM. For the same compound, the figures for the inhibition at 0.5 µM at recombinant human CK2 and at recombinant human PIM1 (cell-free assay) were -9.32% and 71.5%, respectively.
In the case of `C#Cc1cccc(Nc2nc3cc(C(=O)O)ccc3c3cnc(NCC4CC4)nc23)c1` [drawing 1606], the IC50 with Jurkat was 0.424 µM; in test [3] (setting [10]), over 10 µM; in the test on MV-4-11 [5], 0.128 µM; in the test on K-562 [6] it was 0.25 µM. The inhibition at 0.5 µM on recombinant human PIM1 (cell-free assay) was 3.08%.
Take `O=C(O)c1ccc2c(c1)nc(Nc1cccc(F)c1)c1ncncc12`: the figures for the IC50 (with K-562 [4]; in test [3] (setting [8]); at recombinant human PIM1 (cell-free)) were 1.77 µM, 7.1 µM and 0.367 µM, respectively. In addition, at recombinant human PIM1 (cell-free), the inhibition at 0.5 µM was 77.8%.
Take `O=C(O)c1ccc2c(c1)nc(Nc1cccc(C(F)(F)F)c1)c1nc(NC3CC3)ncc12` [drawing 1596]: the results for the IC50 with Jurkat and at Flt3 (read-out: FLT-3) were 3.13 µM and over 0.4 µM, respectively. Also, at recombinant human PIM1 (cell-free assay), the inhibition at 0.5 µM was -17.3%.
For `NC(=O)c1ccc2c(c1)nc(Nc1cc(F)cc(Cl)c1)c1ccncc12`, the IC50 is over 10 µM in the test on K-562 [1], 0.222 µM in the test with MV-4-11 [2] and 0.012 µM at Flt3 (read-out: FLT-3 (uM) IC50). The inhibition at 0.5 µM on recombinant human CK2 was 55.9%; on recombinant human PIM1 (cell-free assay) it was 5.67%.
With `Clc1cccc(Nc2nc3cc(-c4nnco4)ccc3c3cnccc23)c1`, the IC50 with K-562 [1] is over 10 µM; in the test with MV-4-11 [2], 0.501 µM; in test [3] (setting [7]), 5.17 µM; at Flt3 (read-out: FLT-3 (uM) IC50), 0.236 µM. The inhibition at 0.5 µM on recombinant human CK2 was 29.9%; at recombinant human PIM1 (cell-free assay) it was -0.614%.
For the compound `O=C(O)c1ccc2c(c1)nc(Nc1ccccc1)c1nc(NC3CC3)ncc12`, the IC50 in the test on Jurkat is 2.42 µM; in test [3] (setting [10]) it was 1.94 µM; in the test with MV-4-11 [5] it was 0.195 µM; in the test with K-562 [6], 0.494 µM. The inhibition at 0.5 µM on recombinant human PIM1 (cell-free assay) was determined as 18.4%.
For `O=C(O)c1ccc2nc(Nc3cccc(Cl)c3)c3ccncc3c2c1`, the IC50 in the test on K-562 [1] is over 10 µM; in the test with MV-4-11 [2] it was over 10 µM; in [3] (setting [7]), over 10 µM; on Flt3 (read-out: FLT-3 (uM) IC50) it was over 0.4 µM. Also, the values for the inhibition at 0.5 µM at recombinant human CK2 and on recombinant human PIM1 (cell-free assay) were 67.8% and 11.9%, respectively.
Take `NNC(=O)c1ccc2c(c1)nc(Nc1cccc(Cl)c1)c1ccncc12`: the IC50 was over 10 µM in the test with K-562 [1], 2.14 µM in the test on MV-4-11 [2], over 10 µM in test [3] (setting [7]) and 0.075 µM on Flt3 (read-out: FLT-3 (uM) IC50). Moreover, the inhibition at 0.5 µM was 34.9% at recombinant human CK2 and -10.8% at recombinant human PIM1 (cell-free assay).
Take `O=C(NC1CC1)c1ccc2c(c1)nc(NC1CC1)c1nc(NC3CC3)ncc12`: the IC50 in the test on Jurkat is 0.436 µM; in test [3] (setting [9]) it was 0.818 µM; in the test on MV-4-11 [5], 0.497 µM; at recombinant human CK2, over 0.75 µM; in the test with K-562 [6], over 10 µM. Further, at recombinant human PIM1 (cell-free assay), the inhibition at 0.5 µM is -11.9%.
